According to PubChem BioAssay AID1845211 (Molecular Pharmacology Branch, DTP, NCI, 2023):
Values joined by “and” are separate entries in the source; they are usually repeats but may differ in a detail not shown here. Equal entries are not always repeated.

Tested on: NCI-H322M multicellular tumor spheroids, viability (% test/control)
Experiment: Anticancer human tumor NCI-H322M cell line growth inhibition;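 for viability, T/C: spheroids exposed to compound for seven days before readout; 100% = DMSO vehicle control wells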
Settings: for viability, T/C: stronger effect = lower value
In short: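 Single agents and combinations were tested on spheroids built from tumor cells plus HUVEC and hMSC, at half-log dilutions starting at or near clinical Cmax, else 10 microM; final DMSO 0.25% (v/v).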

**Q.** What does the source list for `COc1cc2c(cc1O)CCNC21CSC2c3c(OC(C)=O)c(C)c4c(c3C(COC1=O)N1C(O)C3Cc5cc(C)c(OC)c(O)c5C(C21)N3C)OCO4` (stereo not drawn)?
**A.** viability, T/C (compound 94.9 pM): 90.7% [middle of 10 runs]; viability, T/C (compound 0.0003 µM): 90.7% [middle of 10 runs]; viability, T/C (compound 0.003 µM): 7.2% [middle of 10 runs]; IC50 (compound alone, run of 12/12/2019): 1.56 nM [middle of 8 runs]

**Q.** What does the source list for `COc1ccc([C@@H](O)c2cc(-c3ncnc4cc(N5CCOCC5)ccc34)c(F)cc2Cl)nn1`?
**A.** viability, T/C (compound 0.0316 µM): 94.5% and 86.9% and 89%; viability, T/C (compound 0.1 µM): 82% and 74.6% and 84.6%; viability, T/C (compound 0.316 µM): 79.5% and 68% and 94.4%; viability, T/C (compound 1 µM): 61.6% and 63.9% and 62.2%; viability, T/C (compound 3.16 µM): 38.2% and 58.7% and 52.9%; viability, T/C (compound 10 µM): 33.5% and 34.7% and 43.3%; IC50 (curve of compound): 1.82 µM and 3.81 µM and 2.7 µM

**Q.** What does the source list for `Cc1sc2c(c1C)C(c1ccc(Cl)cc1)=NC(CC(=O)Nc1ccc(O)cc1)c1nnc(C)n1-2` (stereo not drawn) + Cn1nnc2c(C(N)=O)ncn2c1=O?
**A.** IC50 (curve of first compound, second compound 1 µM): > 3 µM; IC50 (curve of first compound, second compound 3.16 µM): > 3 µM; IC50 (curve of first compound, second compound 10 µM): > 3 µM; IC50 (curve of first compound, second compound 31.6 µM): > 3 µM; IC50 (curve of first compound, second compound 100 µM): > 3 µM; viability, T/C (second compound 1 µM, first compound 0.00949 µM): 109%; viability, T/C (second compound 1 µM, first compound 0.03 µM): 105%; viability, T/C (second compound 1 µM, first compound 0.0949 µM): 134%; viability, T/C (second compound 1 µM, first compound 0.3 µM): 114%; viability, T/C (second compound 1 µM, first compound 0.949 µM): 81.2%; viability, T/C (second compound 1 µM, first compound 3 µM): 80.3%; viability, T/C (second compound 3.16 µM, first compound 0.00949 µM): 104%; viability, T/C (second compound 3.16 µM, first compound 0.03 µM): 113%; viability, T/C (second compound 3.16 µM, first compound 0.0949 µM): 120%; viability, T/C (second compound 3.16 µM, first compound 0.3 µM): 103%; viability, T/C (second compound 3.16 µM, first compound 0.949 µM): 87.6%; viability, T/C (second compound 3.16 µM, first compound 3 µM): 73.5%; viability, T/C (second compound 10 µM, first compound 0.00949 µM): 107%; viability, T/C (second compound 10 µM, first compound 0.03 µM): 124%; viability, T/C (second compound 10 µM, first compound 0.0949 µM): 129%; viability, T/C (second compound 10 µM, first compound 0.3 µM): 113%; viability, T/C (second compound 10 µM, first compound 0.949 µM): 90.2%; viability, T/C (second compound 10 µM, first compound 3 µM): 74.5%; viability, T/C (second compound 31.6 µM, first compound 0.00949 µM): 111%; viability, T/C (second compound 31.6 µM, first compound 0.03 µM): 130%; viability, T/C (second compound 31.6 µM, first compound 0.0949 µM): 120%; viability, T/C (second compound 31.6 µM, first compound 0.3 µM): 115%; viability, T/C (second compound 31.6 µM, first compound 0.949 µM): 91.2%; viability, T/C (second compound 31.6 µM, first compound 3 µM): 71.9%; viability, T/C (second compound 100 µM, first compound 0.00949 µM): 116%; viability, T/C (second compound 100 µM, first compound 0.03 µM): 124%; viability, T/C (second compound 100 µM, first compound 0.0949 µM): 116%; viability, T/C (second compound 100 µM, first compound 0.3 µM): 111%; viability, T/C (second compound 100 µM, first compound 0.949 µM): 92.7%; viability, T/C (second compound 100 µM, first compound 3 µM): 82%

**Q.** Which results are given for `COc1cc(C)[nH]c(=O)c1CN1CCc2c(Cl)cc(C(OC)C3COC3)c(Cl)c2C1=O` (stereo not drawn)?
**A.** viability, T/C (compound 0.0316 µM): 104% and 96.2% and 98.2%; viability, T/C (compound 0.1 µM): 87.7% and 103% and 84%; viability, T/C (compound 0.316 µM): 89.9% and 91.7% and 80.2%; viability, T/C (compound 1 µM): 74.3% and 84.4% and 89.6%; viability, T/C (compound 3.16 µM): 93.3% and 91.8% and 102%; viability, T/C (compound 10 µM): 82% and 96.2% and 93.1%; IC50 (curve of compound): > 10 µM
